Patent US11090313B2, “Methods for inhibiting muscle atrophy” (UNIVERSITY OF IOWA RESEARCH FOUNDATION, priority 2010, dated 2021)
Entries after “also recorded” stand apart in the source; their conditions may differ.

Experiments:
Type in all cases: in vivo, mouse
mice [1] = assay: High fat diet with ursolic acid and/or naringenin; settings: 5 weeks
Description: To determine this, weight-matched mice were provided ad libitum access to standard (Harlan Teklad formula 7013), high fat diet (HFD; Harlan Teklad formula TD93075), or HFD containing varying concentrations of ursolic acid (0.15%) and/or naringenin (0.5% or 1.5%). After the mice consumed these diets for 5 weeks, fasting blood glucose, total body weight, fat mass, liver weight, grip strength, and skeletal muscle weight was measured.

C57BL/6 mice [2] = assay: Fasting-induced muscle atrophy in mice (i.p. dosing, 24 h fast)
Description: The mice were then fasted, and after 12 hours of fasting, the mice received a second dose of the compound or vehicle. After 24 hours of fasting, the blood glucose was measured and muscles were harvested. The data shown in FIGS. 6C-6H are means±SEM from ≤16 mice per condition. […] The effects of metformin and ursolic acid on fasting-induced muscle atrophy were also examined, i.e. the effect of 24 h fast (relative to ad lib feeding) on wet weight of lower hindlimb skeletal muscle (bilateral tibialis anterior (“TA” muscle), gastrocnemius, and soleus; see FIGS. 6E-6G). […] In FIGS. 6E-6H, each data point represents one mouse and the horizontal bars denote the means. In FIGS. 6C-6H, P-values were determined using unpaired t-tests.
Mice were then fasted, and after 12 hours of fasting, mice received a second dose of ursolic acid, oleanolic acid, or vehicle. After 24 hours of fasting, lower hindlimb skeletal muscles and liver were harvested and weighed.
To test this, food was withdrawn from mice, and then vehicle, ursolic acid (200 mg/kg) or tomatidine (50 mg/kg) were administered by i.p. injection. Twelve hours later, mice received another i.p. injection of vehicle or the same dose of ursolic acid or tomatidine. Twelve hours later, skeletal muscles were harvested and weighed. […] We next used the same protocol to compare the effects of vehicle (corn oil) and tomatidine (5, 15 and 50 mg/kg).

[3] = tested on: extensor digitorum longus and peroneus muscles; assay: Ex vivo specific tetanic force of muscles from mice fed ursolic acid
Description: Briefly, six-week old male C57BL/6 mice were provided either standard diet or diet containing 0.27% ursolic acid for 16 weeks before being euthanized. The lower hindlimb was removed (by transsecting the upper hindlimb mid-way through the femur), and placed in Krebs solution aerated with 95% 02 and 5% C02. The gastrocnemius, soleus and tibialis anterior muscles, as well as the distal half of the tibia and fibula were then removed and discarded, leaving the extensor digitorum longus and peroneus muscles with their origins and insertions intact. A suture was placed through the proximal tendon and secured to the distal femur fragment. This ex vivo preparation was then mounted vertically in a water jacket bath (Aurora Scientific 1200A Intact Muscle Test System, filled with aerated Krebs solution) by attaching the suture to a servo-controlled lever (superiorly) and clamping the metatarsals (inferiorly). Passive muscle force was adjusted to a baseline of 1 g, and then muscles were stimulated with supramaximal voltage (80 V) at 100 Hz. The mean time from euthanasia to maximal force measurements was 10 min. After force measurements, muscles were removed and weighed in order to calculate specific titanic force. […] Data are means±SEM from 5-6 mice per diet. P-values were determined with a t-test.

C57BL/6 mice [4] = assay: Denervation-induced skeletal muscle atrophy model
mice [5] = assay: Immobilization-induced skeletal muscle atrophy model (stapled tibialis anterior); settings: i.p. twice daily
Description: To test this, a mouse model of immobilization-induced skeletal muscle atrophy was used: mice were administered vehicle (corn oil) or varying doses of ursolic acid (positive control) or betulinic acid via intraperitoneal injection twice a day for two days. One tibialis anterior (TA) muscle was immobilized with a surgical staple, leaving the contralateral mobile TA as an intra-subject control. The vehicle or the same dose of ursolic acid or betulinic acid was continuously administered via i.p. injection twice daily for six days before comparing weights of the immobile and mobile TAs.
To test this, mice were administered vehicle (corn oil), ursolic acid (200 mg/kg), naringenin (200 mg/kg), or the combination of ursolic acid and naringenin (each at 200 mg/kg) via i.p injection twice a day for two days. One tibialis anterior (TA) muscle was immobilized with a surgical staple, leaving the contralateral mobile TA as an intrasubject control. Vehicle or the same doses of ursolic acid and/or naringenin was continuously administered via i.p. injection twice daily for six days before comparing weights of the immobile and mobile TAs.
To test this, mice were administered vehicle (corn oil) or tomatidine (50, 100 or 200 mg/kg) via i.p injection twice a day for two days. One tibialis anterior (TA) muscle was immobilized with a surgical staple, leaving the contralateral mobile TA as an intrasubject control. Vehicle or the same doses of tomatidine was administered via i.p. injection twice daily for six days before comparing weights of the immobile and mobile TAs. […] The same protocol was used to compare the effects of vehicle (corn oil) and tomatidine (5, 15 or 50 mg/kg) on immobilization-induced muscle atrophy.

C57BL/6 mice [6] = assay: High fat diet model of obesity and metabolic syndrome with ursolic acid; settings: high fat diet containing 0.27% ursolic acid
Description: To test this, C57BL/6 mice were given ad libitum access to a high fat diet (HFD; Teklad TD.93075; 55% calories from fat) lacking or containing 0.27% ursolic acid. After 7 weeks, mice from each group were studied for three days in comprehensive lab animal monitoring systems (“CLAMS”; Columbus Instruments). In the CLAMS, mice were maintained on the same diet they had been eating since the beginning of the experiment. Following CLAMS, tissues were harvested for analysis.
The study was carried out as follows: C57BL/6 mice were given ad libitum access to a high fat diet (“HFD”; Teklad TD.93075; 55% calories from fat) lacking or containing 0.27% ursolic acid. After 5 weeks, mice were fasted for 16 h before blood glucose was measured via the tail vein (FIG. 15A). Normal fasting blood glucose: ≤100 mg/dl. (B-I) After 7 weeks, liver and plasma were harvested for analysis (FIGS. 15B-15H).

[7] = HFD with ursolic acid 0.15% or naringenin 0.5% or 1.5%
[8] = ursolic acid 200 mg/kg i.p. twice, 24 h fast, qPCR, normalized to vehicle
[9] = 0.27% ursolic acid diet 16 weeks vs standard diet

Structure (SMILES): C[C@H]1[C@H](C)CC[C@]2(C(=O)O)CC[C@]3(C)C(=CC[C@@H]4[C@@]5(C)CC[C@H](O)C(C)(C)[C@@H]5CC[C@]43C)[C@H]12 [ursolic acid]
- fasting blood glucose in high fat fed mice (mice [1]; HFD with ursolic acid 0.15% and/or naringenin 0.5% or 1.5%): partially prevented
- grip strength in high fat fed mice (mice [1]; [7]): increased strength to a greater extent than naringenin
- skeletal muscle weight in high fat fed mice (mice [1]; [7]): increased muscle weight
- skeletal muscle weight in fasted mice (fasting-induced muscle atrophy) (C57BL/6 mice [2]; i.p. at 0 and 12 h of 24 h fast, vs vehicle, mg/kg: ursolic acid 200, oleanolic acid 200, metformin 250, tomatidine 50, allantoin 2, tacrine 4, ungerine 2, hippeastrine 2, conessine 2): increased skeletal muscle weight; also recorded: increased muscle weight in fasted mice
- fasting blood glucose (C57BL/6 mice [2]; mice, i.p. at 0 and 12 h of 24 h fast, mg/kg: metformin 250, ursolic acid 200, hippeastrine 2, conessine 2): significantly reduced fasting blood glucose
- increase of muscle weight in fasted mice (C57BL/6 mice [2]; ursolic acid 200 mg/kg i.p. twice, 24 h fast, bilateral TA, gastrocnemius and soleus wet weight): 7±2%
- MuRF1 mRNA levels in TA muscles of fasted mice (C57BL/6 mice [2]; [8]): reduced fasting levels
- atrogin-1 mRNA levels in TA muscles of fasted mice (C57BL/6 mice [2]; [8]): reduced fasting levels
- maximal tetanic force [3, 9]: did not differ between the two groups
- muscle weight (extensor digitorum longus and peroneus) [3, 9]: did not differ between the two groups
- specific force generated by muscles ex vivo ([3]; 0.27% ursolic acid diet 16 weeks, 80 V, 100 Hz): increased the specific force generated by muscles ex vivo
- denervated skeletal muscle fiber diameter (gastrocnemius and TA) (C57BL/6 mice [4]; ursolic acid 200 mg/kg i.p. twice daily 7 days): increase in the size of denervated skeletal muscle fiber diameter
- denervation-induced muscle loss (denervated/innervated lower hindlimb muscle weight) (C57BL/6 mice [4]; ursolic acid 200 mg/kg i.p. twice daily 7 days after sciatic nerve transsection): significantly decreased denervation-induced muscle loss
- dose of maximal inhibition of immobilization-induced muscle atrophy (mice [5]): 200 mg/kg
- immobilization-induced muscle atrophy (weights of immobile vs mobile TA) (mice [5]; 2 days before and 6 days after immobilization, ursolic acid and betulinic acid varying doses, naringenin 200 mg/kg, tomatidine 5-200 mg/kg): reduced muscle atrophy in a dose-dependent manner; also recorded: reduces immobilization-induced skeletal muscle atrophy
- weight gain (C57BL/6 mice [6]): dramatically reduced weight gain
- impaired fasting glucose (pre-diabetes) or diabetes (C57BL/6 mice [6]; 5 weeks, 16 h fast): prevented
- brown fat in scapular fat pad (C57BL/6 mice [6]; 7 weeks): increased brown fat
- energy expenditure (CLAMS) (C57BL/6 mice [6]; 7 weeks): increased energy expenditure
- grip strength (C57BL/6 mice [6]; 7 weeks): increased grip strength
- hepatic changes of fatty liver disease (liver weight, hepatocellular lipid accumulation, plasma AST, ALT, alkaline phosphatase) (C57BL/6 mice [6]; 7 weeks): prevented all of these hepatic changes
- muscle mass (C57BL/6 mice [6]; 7 weeks): increased
- obesity-related hypercholesterolemia (plasma cholesterol) (C57BL/6 mice [6]; 7 weeks): reduced obesity-related hypercholesterolemia
- retroperitoneal and epididymal fat (C57BL/6 mice [6]; 7 weeks): reduced retroperitoneal and epididymal fat
- white fat in scapular fat pad (C57BL/6 mice [6]; 7 weeks): reduced white fat
